{
  "source": "PubChem BioAssay AID1224920",
  "about": "(Broad Institute, 2016)",
  "experiment": "growth modulation of Clostridium difficile isolate – OD600, 9-point, retest, dose response (AID 1224920);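 note: plate controls were DMSO for no effect and levofloxacin control for full effect; inhibitors lower culture turbidity so OD600 falls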",
  "conditions": "Clostridium difficile clinical isolate growth, OD600, 24 h",
  "note": "Calls of active or inactive are those of the source.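 Rule for the calls: active = IC50 no higher than ten times the top tested dose; inconclusive = flat fit with 30 to 70% inhibition, or poor fit; inactive = IC50 above ten times the top dose.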",
  "data": [
    {"compound": "C/C=C/c1ccc([C@H]2[C@@H](CNC(=O)c3ccccn3)N(C(C)=O)[C@H]2CO)cc1", "values": [
      {"measurement": "activity change, negative = inhibition", "setting": "at 135 µM (top of the series)", "result": "-7.58% (inactive)"}
    ]},
    {"compound": "C/C=C/c1ccc([C@@H]2[C@@H](CO)N(C(=O)CC)[C@@H]2CNC(=O)CC)cc1", "values": [
      {"measurement": "activity change, negative = inhibition", "setting": "at 120 µM (top of the series)", "result": "-6.09% (inactive)"}
    ]},
    {"compound": "O=C(C1CCCC1)N1C[C@@H]2N[C@H](C1)C2c1ccc(-c2ccccc2F)cc1", "note": "(stereo partly drawn)", "values": [
      {"measurement": "activity change, negative = inhibition", "setting": "at 60 µM (top of the series)", "result": "51.8% (inactive)"}
    ]},
    {"compound": "O=C(C1CCCC1)N1C[C@@H]2N[C@H](C1)C2c1ccc(-c2cccc(F)c2)cc1", "note": "(stereo partly drawn)", "values": [
      {"measurement": "activity change, negative = inhibition", "setting": "at 60 µM (top of the series)", "result": "46.7% (inactive)"}
    ]},
    {"compound": "C[C@H]1CN([C@@H](C)CO)C(=O)c2cccc(NC(=O)c3nc4ccccc4s3)c2O[C@H]1CN(C)S(=O)(=O)c1ccc(F)cc1", "values": [
      {"measurement": "activity change, negative = inhibition", "setting": "at 60 µM (top of the series)", "result": "0.765% (inactive)"}
    ]},
    {"compound": "Cc1cccc(-c2ccc(C3[C@@H]4CN(C(=O)C5CCC5)C[C@H]3N4)cc2)c1", "note": "(stereo partly drawn)", "values": [
      {"measurement": "activity change, negative = inhibition", "setting": "at 60 µM (top of the series)", "result": "39.3% (inactive)"}
    ]},
    {"compound": "N#Cc1cccc(-c2ccc(C3[C@@H]4CN(Cc5cocn5)C[C@H]3N4)cc2)c1", "note": "(stereo partly drawn)", "values": [
      {"measurement": "activity change, negative = inhibition", "setting": "at 120 µM (top of the series)", "result": "39.4% (inactive)"}
    ]},
    {"compound": "O=S(=O)(c1ccc(F)cc1)N1CCCCN2[C@H](CO)[C@H](c3ccc(C#CC4CCCC4)cc3)[C@H]2C1", "values": [
      {"measurement": "activity change, negative = inhibition", "setting": "at 120 µM (top of the series)", "result": "-16.2% (inactive)"}
    ]},
    {"compound": "COc1cccc(-c2ccc3c(c2)[C@@H]2[C@@H](CCN2Cc2ccccc2OC)[C@@H](CO)N3)c1", "values": [
      {"measurement": "activity change, negative = inhibition", "setting": "at 30 µM (top of the series)", "result": "-7.43% (inactive)"}
    ]},
    {"compound": "O=C(c1ccc(F)cc1)N1CC[C@@H]2[C@H]1c1cc(C3=CCCCC3)ccc1N[C@@H]2CO", "values": [
      {"measurement": "activity change, negative = inhibition", "setting": "at 60 µM (top of the series)", "result": "34.8% (inactive)"}
    ]},
    {"compound": "COc1ccc(NC(=O)N2C[C@@H]3N[C@H](C2)C3c2ccc(-c3cccc(OC)c3)cc2)cc1", "note": "(stereo partly drawn)", "values": [
      {"measurement": "activity change, negative = inhibition", "setting": "at 60 µM (top of the series)", "result": "28.8% (inactive)"}
    ]},
    {"compound": "N#C[C@@H]1[C@H](c2ccccc2-c2cccc(F)c2)[C@H](CO)N1C(=O)Cc1cccnc1", "values": [
      {"measurement": "activity change, negative = inhibition", "setting": "at 135 µM (top of the series)", "result": "9.55% (inactive)"}
    ]},
    {"compound": "CC(=O)N(C)C[C@@H]1[C@@H](c2ccc(-c3ccccc3F)cc2)[C@H](CO)N1C(C)=O", "values": [
      {"measurement": "activity change, negative = inhibition", "setting": "at 120 µM (top of the series)", "result": "-14.3% (inactive)"}
    ]},
    {"compound": "Cc1ccc(-c2ccccc2[C@@H]2[C@@H](C#N)N(C(=O)NC3CCCC3)[C@H]2CO)cc1", "values": [
      {"measurement": "activity change, negative = inhibition", "setting": "at 135 µM (top of the series)", "result": "25% (inactive)"}
    ]},
    {"compound": "CN1[C@@H]2c3ccc(/C=C/c4ccccc4)c(=O)n3C[C@H]1[C@H](CO)[C@H]2C(=O)NC1CCCC1", "values": [
      {"measurement": "activity change, negative = inhibition", "setting": "at 120 µM (top of the series)", "result": "4.99% (inactive)"}
    ]},
    {"compound": "COc1ccc(NC(=O)N2[C@@H]3CNC[C@H]2C3c2ccc(-c3ccc(F)cc3)cc2)cc1", "note": "(stereo partly drawn)", "values": [
      {"measurement": "activity change, negative = inhibition", "setting": "at 60 µM (top of the series)", "result": "39.8% (inactive)"}
    ]},
    {"compound": "CN1c2ccc(-c3cccc(F)c3)cc2[C@@H]2[C@@H](CCN2C(=O)Cc2ccccc2)[C@@H]1CO", "values": [
      {"measurement": "activity change, negative = inhibition", "setting": "at 135 µM (top of the series)", "result": "52.8% (inactive)"}
    ]},
    {"compound": "CC(=O)NC[C@H]1[C@@H](c2ccc(-c3cccc(F)c3)cc2)[C@@H](CO)N1C(C)=O", "values": [
      {"measurement": "activity change, negative = inhibition", "setting": "at 135 µM (top of the series)", "result": "-7.05% (inactive)"}
    ]},
    {"compound": "CC(=O)N1[C@@H](CO)[C@@H](c2ccccc2)[C@@H]1CN(C)C(=O)CN1CCOCC1", "values": [
      {"measurement": "activity change, negative = inhibition", "setting": "at 120 µM (top of the series)", "result": "-9.07% (inactive)"}
    ]},
    {"compound": "COc1ccc2c3c(n(C)c2c1)[C@@H](CO)N(C(=O)C1CC1)CC31CN(C(=O)Nc2cccc(F)c2)C1", "values": [
      {"measurement": "activity change, negative = inhibition", "setting": "at 120 µM (top of the series)", "result": "18.8% (inactive)"}
    ]},
    {"compound": "CN(C)C(=O)C[C@@H]1CC[C@@H]2[C@@H](COc3ccc(NC(=O)C4CCC4)cc3C(=O)N2C)O1", "values": [
      {"measurement": "activity change, negative = inhibition", "setting": "at 120 µM (top of the series)", "result": "0.255% (inactive)"}
    ]},
    {"compound": "CC(=O)N(C)C[C@@H]1[C@@H](c2ccc(-c3ccccc3F)cc2)[C@@H](CO)N1C(C)=O", "values": [
      {"measurement": "activity change, negative = inhibition", "setting": "at 135 µM (top of the series)", "result": "-15.6% (inactive)"}
    ]},
    {"compound": "N#Cc1ccc(-c2ccc(C3[C@H]4CNC[C@@H]3N4C(=O)Nc3ccc(Cl)cc3)cc2)cc1", "note": "(stereo partly drawn)", "values": [
      {"measurement": "activity change, negative = inhibition", "setting": "at 135 µM (top of the series)", "result": "25.9% (inactive)"}
    ]},
    {"compound": "CCCNC(=O)N1CC[C@H]2[C@@H]1c1cc(C#Cc3ccccc3)ccc1N(C)[C@H]2CO", "values": [
      {"measurement": "activity change, negative = inhibition", "setting": "at 60 µM (top of the series)", "result": "49.3% (inactive)"}
    ]},
    {"compound": "COc1ccc(S(=O)(=O)N2CCCCN3[C@H](CO)[C@@H](c4ccc(C#CC(C)C)cc4)[C@H]3C2)cc1", "values": [
      {"measurement": "activity change, negative = inhibition", "setting": "at 120 µM (top of the series)", "result": "39.3% (inactive)"}
    ]},
    {"compound": "O=C(Nc1ccc(F)cc1)N1CCCCN2[C@H](CO)[C@@H](c3ccc(-c4ccccc4F)cc3)[C@@H]2C1", "values": [
      {"measurement": "activity change, negative = inhibition", "setting": "at 60 µM (top of the series)", "result": "53.6% (inactive)"}
    ]},
    {"compound": "CCc1nc(N2[C@H](C#N)[C@@H](c3ccccc3-c3ccccc3F)[C@@H]2CO)sc1C", "values": [
      {"measurement": "activity change, negative = inhibition", "setting": "at 120 µM (top of the series)", "result": "57.6% (inactive)"}
    ]},
    {"compound": "COc1ccc2c3c(n(C)c2c1)[C@H](CO)N(C(=O)Nc1ccc(F)cc1)CC31CCN(C(=O)CN2CCOCC2)CC1", "values": [
      {"measurement": "activity change, negative = inhibition", "setting": "at 135 µM (top of the series)", "result": "-1.31% (inactive)"}
    ]},
    {"compound": "COc1ccc(-c2ccc3c(c2)[C@H]2[C@H](CCN2C(=O)Cc2cccnc2)[C@H](CO)N3C)cc1", "values": [
      {"measurement": "activity change, negative = inhibition", "setting": "at 120 µM (top of the series)", "result": "28.9% (inactive)"}
    ]},
    {"compound": "O=C(C[C@@H]1CC[C@@H]2[C@H](COC[C@@H](O)CN2S(=O)(=O)c2ccccc2)O1)NCc1ccc(-c2ccccc2)cc1", "values": [
      {"measurement": "activity change, negative = inhibition", "setting": "at 120 µM (top of the series)", "result": "43.8% (inactive)"}
    ]},
    {"compound": "C[C@H](CO)N1C[C@H](C)[C@H](CN(C)C(=O)Nc2ccc3c(c2)OCO3)Oc2c(NC(=O)Nc3ccc(C(F)(F)F)cc3)cccc2C1=O", "values": [
      {"measurement": "activity change, negative = inhibition", "setting": "at 120 µM (top of the series)", "result": "49.4% (inactive)"}
    ]},
    {"compound": "C/C=C/c1ccc(C2[C@@H]3CN(C(=O)Nc4ccc(F)cc4)C[C@H]2N3)cc1", "note": "(stereo partly drawn)", "values": [
      {"measurement": "activity change, negative = inhibition", "setting": "at 68 µM (top of the series)", "result": "49.5% (inactive)"}
    ]},
    {"compound": "Cc1ccc(-c2ccc([C@@H]3[C@H]4CN(C(=O)Nc5cccc(F)c5)CCCCN4[C@H]3CO)cc2)cc1", "values": [
      {"measurement": "activity change, negative = inhibition", "setting": "at 120 µM (top of the series)", "result": "6.7% (inactive)"}
    ]}
  ]
}
